According to ChEMBL document CHEMBL1134604, “2-Alkynyl-8-aryl-9-methyladenines as novel adenosine receptor antagonists: their synthesis and structure-activity relationships toward hepatic glucose production induced via agonism of the A(2B) receptor” (J Med Chem, 2001):

Experiments:
Adenosine receptor A1 [1] = target: T1, Adenosine receptor A1 (Rattus norvegicus, UniProt P25099); assay: Inhibitory activity against cyclic AMP production in rat Adenosine A1 receptor assay
T1 sequence (P25099 whole entry): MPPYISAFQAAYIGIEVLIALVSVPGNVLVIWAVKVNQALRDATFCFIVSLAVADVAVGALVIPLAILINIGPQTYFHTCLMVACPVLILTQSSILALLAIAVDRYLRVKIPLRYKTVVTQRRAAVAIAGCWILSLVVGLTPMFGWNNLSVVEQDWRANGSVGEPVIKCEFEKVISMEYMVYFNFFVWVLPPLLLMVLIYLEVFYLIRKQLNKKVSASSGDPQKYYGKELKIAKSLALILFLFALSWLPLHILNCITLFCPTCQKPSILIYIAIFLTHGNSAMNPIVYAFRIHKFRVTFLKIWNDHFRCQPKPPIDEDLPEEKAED

Adenosine receptor A3 [2] = target: T2, Adenosine receptor A3 (Homo sapiens, UniProt P0DMS8); assay: Binding affinity towards adenosine A3 receptor expressed in HEK293 cells versus [125I]AB-MECA; format: cell-based
T2 sequence (P0DMS8 whole entry): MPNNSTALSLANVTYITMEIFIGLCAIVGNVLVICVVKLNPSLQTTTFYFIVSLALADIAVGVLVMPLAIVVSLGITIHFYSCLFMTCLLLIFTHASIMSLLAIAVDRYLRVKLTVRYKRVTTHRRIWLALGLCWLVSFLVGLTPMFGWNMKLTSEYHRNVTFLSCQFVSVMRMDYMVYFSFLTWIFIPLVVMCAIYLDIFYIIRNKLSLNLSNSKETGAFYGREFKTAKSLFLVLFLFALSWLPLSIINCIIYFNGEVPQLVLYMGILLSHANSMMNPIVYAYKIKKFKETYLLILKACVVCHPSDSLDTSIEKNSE

Adenosine receptor A1 [3] = target: T3, Adenosine receptor A1 (Homo sapiens, UniProt P30542); assay: Binding Affinity towards Adenosine A1 receptor expressed in CHO-K1 cells versus [3H]CCPA; format: cell-based
T3 sequence (P30542 whole entry): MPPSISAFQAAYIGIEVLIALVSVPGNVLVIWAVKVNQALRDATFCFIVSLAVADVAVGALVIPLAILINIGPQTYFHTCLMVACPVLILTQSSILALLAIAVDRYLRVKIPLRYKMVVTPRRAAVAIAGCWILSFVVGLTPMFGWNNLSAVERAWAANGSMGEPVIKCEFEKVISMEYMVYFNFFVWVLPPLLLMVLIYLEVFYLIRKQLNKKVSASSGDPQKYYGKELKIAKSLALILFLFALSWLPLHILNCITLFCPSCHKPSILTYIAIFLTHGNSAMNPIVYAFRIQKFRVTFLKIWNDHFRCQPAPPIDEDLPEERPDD

Adenosine receptor A2b [4] = target: T4, Adenosine receptor A2b (Homo sapiens, UniProt P29275); assay: Inhibitory activity on NECA-induced cyclic-AMP accumulation in CHO-K1 cells expressing human Adenosine A2B receptor; format: functional, cell-based
T4 sequence (P29275 whole entry): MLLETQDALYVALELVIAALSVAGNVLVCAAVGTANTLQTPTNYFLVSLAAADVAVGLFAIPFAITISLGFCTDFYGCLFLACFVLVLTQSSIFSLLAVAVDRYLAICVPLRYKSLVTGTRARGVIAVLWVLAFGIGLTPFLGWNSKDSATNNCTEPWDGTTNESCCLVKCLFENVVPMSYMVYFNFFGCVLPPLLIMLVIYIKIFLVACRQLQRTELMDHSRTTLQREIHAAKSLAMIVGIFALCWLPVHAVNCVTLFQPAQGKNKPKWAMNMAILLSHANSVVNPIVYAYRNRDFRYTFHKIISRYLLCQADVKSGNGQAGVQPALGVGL

Adenosine receptor A2b [5] = target: T5, Adenosine receptor A2b (Rattus norvegicus, UniProt P29276); assay: Inhibitory activity on N-ethylcarboxamidoadenosine (NECA)-induced glucose production in primary cultured rat hepatocytes; format: functional, cell-based, Hepatocyte
T5 sequence (P29276 whole entry): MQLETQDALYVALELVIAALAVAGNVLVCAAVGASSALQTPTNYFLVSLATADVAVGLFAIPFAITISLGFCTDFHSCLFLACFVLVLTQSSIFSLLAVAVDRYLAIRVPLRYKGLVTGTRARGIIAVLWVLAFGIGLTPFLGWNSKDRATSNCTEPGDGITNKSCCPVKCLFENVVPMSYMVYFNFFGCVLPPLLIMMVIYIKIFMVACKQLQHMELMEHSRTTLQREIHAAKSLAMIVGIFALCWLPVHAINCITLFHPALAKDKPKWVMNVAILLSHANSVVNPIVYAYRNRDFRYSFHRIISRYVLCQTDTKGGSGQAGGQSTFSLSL

Adenosine receptor A2a [6] = target: T6, Adenosine receptor A2a (Homo sapiens, UniProt P29274); assay: Binding Affinity towards Adenosine A2A receptor expressed in HEK293 cells versus [3H]CGS-21680; format: cell-based
Adenosine receptor A2b [7] = target: T4, Adenosine receptor A2b; assay: Inhibitory activity against cyclic AMP production in human Adenosine A2B receptor assay
Adenosine receptor A2a [8] = target: T6, Adenosine receptor A2a; assay: Binding Affinity for adenosine A2A receptor expressed in HEK293 cells compared to [3H]CGS-21680; format: cell-based
[9] = target: Adenosine receptor A2a (Rattus norvegicus) (UniProt P30543); assay: Inhibitory activity against cyclic AMP production in rat Adenosine A2A receptor assay
Adenosine receptor A3 [10] = target: T2, Adenosine receptor A3; assay: Inhibitory activity against cyclic AMP production in human adenosine A3 receptor assay

T6 sequence (P29274 whole entry): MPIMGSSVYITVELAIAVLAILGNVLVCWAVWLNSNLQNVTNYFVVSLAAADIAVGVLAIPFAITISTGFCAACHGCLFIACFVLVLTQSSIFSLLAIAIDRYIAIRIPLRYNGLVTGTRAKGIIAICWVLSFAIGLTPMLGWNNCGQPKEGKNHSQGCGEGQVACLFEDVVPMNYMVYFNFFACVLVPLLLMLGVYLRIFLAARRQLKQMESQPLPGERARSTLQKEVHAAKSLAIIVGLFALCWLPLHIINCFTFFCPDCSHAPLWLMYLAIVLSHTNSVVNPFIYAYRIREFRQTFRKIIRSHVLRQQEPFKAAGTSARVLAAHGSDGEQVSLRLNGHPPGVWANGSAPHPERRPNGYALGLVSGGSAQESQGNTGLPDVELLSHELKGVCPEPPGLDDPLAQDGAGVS
Adenosine receptor A2a (Rattus norvegicus), sequence (P30543 whole entry, looked up): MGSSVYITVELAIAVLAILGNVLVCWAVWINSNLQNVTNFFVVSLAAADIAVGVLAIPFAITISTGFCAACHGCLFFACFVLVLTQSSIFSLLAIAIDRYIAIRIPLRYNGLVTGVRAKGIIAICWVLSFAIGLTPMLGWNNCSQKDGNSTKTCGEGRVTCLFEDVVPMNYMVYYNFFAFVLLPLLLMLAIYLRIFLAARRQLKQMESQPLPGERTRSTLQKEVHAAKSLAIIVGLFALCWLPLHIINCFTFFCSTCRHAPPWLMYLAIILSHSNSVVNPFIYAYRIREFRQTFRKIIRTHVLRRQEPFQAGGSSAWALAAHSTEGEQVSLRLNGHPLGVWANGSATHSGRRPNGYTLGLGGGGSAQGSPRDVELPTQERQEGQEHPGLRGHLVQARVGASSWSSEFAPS

| Ki (Adenosine receptor A1 [3]) [µM] | IC50 (Adenosine receptor A2b [4]) [µM] | IC50 (Adenosine receptor A2b [5]) [µM] | Compound | also measured |
| --- | --- | --- | --- | --- |
| > 10 | 1.5 | – | CCCn1c(=O)c2c(nc(/C=C/c3ccc(OC)c(OC)c3)n2C)n(CCC)c1=O | IC50 (Adenosine receptor A1 [1]): 0.062 µM; Ki (Adenosine receptor A3 [2]): 2.5 µM |
| 0.02 | 0.063 | 0.42 | Cn1c(-c2cccc(F)c2)nc2c(N)nc(C#CC3(O)CCCC3)nc21 | Ki (Adenosine receptor A3 [2]): 1.1 µM |
| – | – | 1.6 | COc1cccc(-c2nc3c(N)nc(C#CC4(O)CCCCC4)nc3n2C)c1 | – |
| – | – | 0.72 | Cn1c(-c2cccc(F)c2)nc2c(N)nc(C#CC3CCCC3)nc21 | – |
| 0.019 | 0.077 | 0.44 | Cn1c(-c2ccccc2F)nc2c(N)nc(C#CC3(O)CCCCC3)nc21 | Ki (Adenosine receptor A2a [6]): 0.015 µM |
| 0.014 | 0.023 | 0.25 | Cn1c(-c2cccc(F)c2)nc2c(N)nc(C#CC3(O)CCCCC3)nc21 | Ki (Adenosine receptor A3 [2]): 0.54 µM; Ki (Adenosine receptor A2a [6]): 0.016 µM |
| – | 0.16 | 1.2 | Cn1c(-c2ccc(F)cc2)nc2c(N)nc(C#CC3(O)CCCCC3)nc21 | – |
| – | – | 5.3 | Cn1c(-c2cccc(F)c2)nc2c(N)ncnc21 | – |
| – | – | 0.75 | Cn1c(-c2cccs2)nc2c(N)nc(C#CC3(O)CCCCC3)nc21 | – |
| 0.025 | 0.014 | 0.22 | Cn1c(-c2ccco2)nc2c(N)nc(C#CC3(O)CCCCC3)nc21 | Ki (Adenosine receptor A2a [6]): 0.011 µM |
| – | – | > 10 | COc1ccc(-c2nc3c(N)nc(C#CC4(O)CCCCC4)nc3n2C)cc1F | – |
| – | – | 0.97 | Cc1cccc(-c2nc3c(N)nc(C#CC4(O)CCCCC4)nc3n2C)c1 | – |
| – | – | 0.49 | Cn1c(-c2cccc(Cl)c2)nc2c(N)nc(C#CC3(O)CCCCC3)nc21 | – |
| 0.029 | 0.14 | 0.54 | CCC(O)(C#Cc1nc(N)c2nc(-c3cccc(F)c3)n(C)c2n1)CC | Ki (Adenosine receptor A3 [2]): 0.33 µM; Ki (Adenosine receptor A2a [6]): 0.013 µM |
| – | 0.5 | 6.3 | Cn1c(-c2ccc(Cl)cc2)nc2c(N)nc(C#CC3(O)CCCCC3)nc21 | – |
| – | – | 0.76 | Cn1c(-c2ccccc2)nc2c(N)nc(C#CC3(O)CCCCC3)nc21 | – |
| – | – | 1.3 | Cn1c(-c2ccccn2)nc2c(N)nc(C#CC3(O)CCCCC3)nc21 | – |
| – | 5.6 | > 10 | Cn1c(-c2cccc(C(F)(F)F)c2)nc2c(N)nc(C#CC3(O)CCCCC3)nc21 | – |
| – | – | 4.4 | Cn1cnc2c(N)nc(C#CC3(O)CCCCC3)nc21 | – |
| > 10 | 3 | > 10 | COC(=O)C1=C2C=CN(C)C=C2c2nc(-c3ccccc3)nn2C1 | IC50 (Adenosine receptor A2b [7]): 3 µM; Ki (Adenosine receptor A2a [8]): > 10 µM |
| – | 0.21 | 1.1 | Cn1c(=O)c2[nH]c(-c3ccccc3)nc2n(C)c1=O [8-PHENYL THEOPHYLLINE] | IC50 (Adenosine receptor A2b [7]): 0.21 µM; IC50 [9]: 0.454 µM; IC50 (Adenosine receptor A3 [10]): 1.25 µM |
| 0.018 | – | 8.1 | O=C(/C=C/c1c(-c2ccccc2)nn2ccccc12)N1CCCC[C@@H]1CCO [FK453] | IC50 (Adenosine receptor A1 [1]): 0.0172 µM; Ki (Adenosine receptor A3 [2]): 2.8 µM |

| Compound | Ki (Adenosine receptor A1 [3]) [µM] | IC50 (Adenosine receptor A2b [4]) [µM] | IC50 (Adenosine receptor A2b [5]) [µM] | also measured |
| --- | --- | --- | --- | --- |
| Cn1c(-c2cccc(F)c2)nc2c(N)nc(C#CC3(O)CCCCCC3)nc21 | 0.027 | 0.049 | 0.44 | Ki (Adenosine receptor A2a [6]): 0.019 µM |
| Cn1c(-c2cccc(F)c2)nc2c(N)nc(C#CC(C)(C)O)nc21 | 0.03 | 0.15 | 0.51 | Ki (Adenosine receptor A3 [2]): 2.1 µM; Ki (Adenosine receptor A2a [6]): 0.0091 µM |
| Cn1c(-c2cccc(C#N)c2)nc2c(N)nc(C#CC3(O)CCCCC3)nc21 | 0.13 | 0.072 | 0.41 | Ki (Adenosine receptor A2a [6]): 0.013 µM |
